Data set [1] concerns AKR1B10 (ARL-1) secretion. Kind of data set: ARL-1 secretion into culture medium (sandwich ELISA and Western blot). The format is cell-based, human. On the procedure:
Soluble proteins are secreted by either the classical or nonclassical pathway (Nickel et al., Eur J. Biochem. 270: 2109-2119, 2003). In the classical protein secretion pathway, a secretory protein is translocated by an N-terminal signal peptide into endoplasmic reticulum and Golgi complex concomitant with protein synthesis. Thus, this pathway is affected by inhibitors of protein synthesis and protein transport from ER to Golgi. […] HCT-8 cells (1.25×10^5) were cultured in 12-well plates overnight and the next day the cells were exposed to 15 μg/ml of protein synthesis inhibitor cycloheximide in fresh serum-free medium. Medium was collected at different time points for sandwich ELISA and Western blot analysis. […] Next, the effects of an ER-Golgi pathway inhibitor were examined. HCT-8 and NCI-460 cells (1.25×10^5) were cultured in 12-well plates overnight and then exposed to an ER-Golgi protein transport inhibitor brefeldin A at 0, 2, or 10 μg/ml in fresh serum-free medium for 6 hour. Medium was collected for sandwich ELISA and Western blot analysis. […] Statistic analysis was performed using Student's t test or Chi square tests, as appropriate, with INSTAT statistical analysis package (Graph Pad Software, CA), for statistical significance at p<0.05.
At 30 min before harvest, ATP (1 mM) was added and the medium was subjected to sandwich ELISA and Western blot analysis. In addition, HCT-8 cells (1.25×10^5) were seeded into 12-well plates and exposed to Ca^2+ ions (100 μM) or ionomycin at 1 or 2 μM in serum-free medium for 30 min and the medium was harvested for sandwich ELISA and Western blot analysis. […]
Proteins that are secreted via the lysosome-mediated pathway are often translocated into lysosomes by the ABC transporters (Hamon et al., Blood 90: 2911-2915, 1997). To understand the transmembrane mechanism of ARL-1, HCT-8 cells (1.25×10^5) were cultured in 12-well plates overnight and then exposed to ABC transporter inhibitor GLIB (glibenclamide) or DIDS (4,4′-diisothiocyanatostilbene-2,2′-disulfonic acid) (Sigma, Mo.) in serum-free medium for 2 hours. ATP (1 mM) was added 30 min before harvest. Medium and cells were collected for sandwich ELISA and Western blot analysis.
(In an ELISA, binding on a coated surface is turned into a signal by an enzyme label.)

Data set [2] concerns HCT-8 cells. Kind of data set: Mechanism of acrolein-induced cell death in HCT-8 cells with ARL-1 knockdown (flow cytometry, LDH efflux). It counts as cell-based, human. The note with it: 25 μM. On the procedure:
The mechanisms of cell death induced by reactive carbonyls were investigated by flow cytometry and lactate dehydrogenase leakage assay. For flow cytometry assay, cells (with ARL-1 knockdown) were incubated with acrolein (25 μM) for 24 hours. After medium was gently removed, cells were washed with cold PBS and trypsinized. Cells in PBS and trypsin digestion were pooled, washed with PBS twice at 1200 rpm for 10 min, and then subjected to immediate propidium iodide (PI) and annexin V-FITC staining for 10 minutes in the dark as set forth in Yuan et al. (2004, Oncogene 23: 5843-5852, 2004). FACScan analysis was performed using a FACScan cytometer (Becton Dickinson, Calif.).
For lactate dehydrogenase (LDH) efflux assays, cells were plated at 5×10^4 cells/well in 12-well plates and exposed to 25 μM of acrolein for 12 hours. Medium was collected and cells were lysed for 10 min in 0.5% (v/v) Triton X-100 in 0.1 M potassium phosphate buffer (pH 7.4). Supernatants were collected by centrifugation at 10,000×g for 5 min. LDH activity in medium and cell lysates was measured using LDH assay kit (Roche, Ind.). […] Absorbance at 490 nm was read in a microplate reader (Bio-Rad, CA), with 650 nm as a reference wavelength. LDH release was calculated as: LDH release (%)=[LDH in medium/(LDH in medium+LDH in cell lysate)]×100 (Koh and Choi, 1987, J Neurosci Methods 20: 83-90).
In general terms: In flow cytometry, cells or beads pass a laser one at a time.

[3] abbreviates: HCT-8 cells, serum-free medium 30 min, Ca2+ ions 100 μM, ionomycin 1 or 2 μM.
[4] abbreviates: HCT-8 cells, serum-free medium, ATP 1 mM 30 min before harvest, Mg2+ 2 mM and/or EDTA 1 mM for 2 hours.
The mark [5] stands for this setting: HCT-8 cells, serum-free medium 2 hours, ATP 1 mM added 30 min before harvest.

Entries after “also recorded” stand apart in the source; their conditions may differ.

Regarding `Nc1ncnc2c1ncn2[C@@H]1O[C@H](COP(=O)(O)OP(=O)(O)OP(=O)(O)O)[C@@H](O)[C@H]1O` [ATP], the ARL-1 secretion entry in data set [1] (setting [3]) is “synergistic role in Ca^2+-mediated stimulation”; in data set [1] (setting [4]), “significantly stimulated”.
In the case of `[Ca+2]` [Ca^2+ ions], the ARL-1 secretion result in data set [1] (setting [3]) is on record as “significantly stimulated”.
Regarding `O=S(=O)(O)c1cc(N=C=S)ccc1C=Cc1ccc(N=C=S)cc1S(=O)(=O)O` [DIDS, 4,4′-diisothiocyanatostilbene-2,2′-disulfonic acid], the ARL-1 secretion entry in data set [1] (setting [5]) is listed as “suppressed”.
On the same count and under the same terms, as for `COc1ccc(Cl)cc1C(=O)NCCc1ccc(S(=O)(=O)NC(=O)NC2CCCCC2)cc1` [GLIB, glibenclamide], the entry is “suppressed”.
`[Mg+2]` [Mg^2+]: the ARL-1 secretion entry in data set [1] (setting [4]) is on record as “blocked”.
In the case of `Cl.N` [NH4Cl], the ARL-1 secretion entry in data set [1] (50 mM added simultaneously with the fresh serum-free medium) is given as “increased”. The “ARL-1 in freshly fed serum-free medium compared with control” value in data set [1] (50 mM for 2 hours before switch to fresh serum-free medium) is recorded as “significant decrease”.
With `C=CC=O` [acrolein], the “features of induced cell death” value in data set [2] is “LDH efflux and annexin V staining, a characteristic of oncosis”.
As for `C[C@H]1CCC/C=C/[C@@H]2C[C@H](O)C[C@H]2[C@H](O)/C=C/C(=O)O1` [brefeldin A], in data set [1] (HCT-8 and NCI-460 cells, 0, 2, or 10 μg/ml, serum-free medium, 6 hour), the ARL-1 secretion result is “not affected; also recorded: did not significantly affect secretion”.
With `C[C@@H]1C[C@@H]([C@H](O)CC2CC(=O)NC(=O)C2)C(=O)[C@@H](C)C1` [cycloheximide], the ARL-1 secretion result in data set [1] (HCT-8 cells, 15 μg/ml, serum-free medium, up to 8 hours) is recorded as “not affected; also recorded: did not significantly affect secretion”.
For the compound `C[C@H](CCC(=O)O)C[C@H](C)C[C@H](C)C(=O)/C=C(\O)[C@H](C)C[C@H](C)C/C=C/[C@@H](C)[C@@H](O)[C@@H](C)[C@@H](O)C[C@@H]1CC[C@@](C)([C@H]2CC[C@@](C)([C@@H](C)O)O2)O1` [ionomycin], the ARL-1 secretion result in data set [1] (setting [3]) was “significantly stimulated”.

Source of the values: patent US8685666B2, “ARL-1 specific antibodies and uses thereof” (The Board of Trustees of Southern Illinois University, priority 2007, dated 2014).
